Tested on: Plasmodium berghei
Assay: Luciferase/luciferin-expressing antifolate-resistant parasites were used to infect a culture of HepG2 cells that were pre-incubated with compounds. Infected hepatocytes emit light due to the luciferase reaction. Assay results are presented as the percent inhibition of light emission compared to control. […]
Assay type: functional
Settings: sporozoite; for IC50: read-out: LUCIFERASE INFECTION ASSAY - IC50; for IC90: read-out: LUCIFERASE INFECTION ASSAY - IC90

SMILES | IC50 | IC90
CN(C)c1ccc(/C=C(\C#N)c2nc3ccccc3[nH]2)cc1 | > 11.4 µM | > 11.4 µM
CCOC(=O)c1sc([S+](C)[O-])c2c1CCc1conc1-2 (stereo not given) | > 10.6 µM | > 10.6 µM
Clc1cccc(Sc2ccc(-c3ccccn3)s2)c1 | > 10.9 µM | > 10.9 µM
COC(=O)c1c(C(=O)OC)c2n(c1C)CCS2 | > 12.9 µM | > 12.9 µM
Nc1nc2c(c(C(F)(F)F)n1)CCc1ccccc1-2 | > 12.4 µM | > 12.4 µM
O=C(Nc1ccc(OC(F)(F)F)cc1)Nc1cc(-c2cccs2)n[nH]1 | > 8.96 µM | > 8.96 µM
CCCSc1ccc2c3c(cccc13)C(=O)N(CCc1ccccn1)C2=O | > 8.77 µM | > 8.77 µM
CC(NC(=S)Nc1ccc(Oc2ccc(Cl)cc2)cc1)c1ccccc1 (stereo not given) | 7.1 µM | > 8.62 µM
CC1(C)CCc2cc(/C=N/OC(=O)Nc3ccc(OC(F)(F)F)cc3)ccc2O1 | > 8.08 µM | > 8.08 µM
CCO/C(C)=N\OC(=O)c1c(-c2c(Cl)cccc2Cl)noc1C | > 9.24 µM | > 9.24 µM
Brc1ccc(Nn2c(-c3ccccc3)nc3c2C2C=CC=CC2C=N3)cc1 (stereo not given) | 3.6 µM | 5.07 µM
CCCCCNS(=O)(=O)c1cccc2c(N)cccc12 | 3.76 µM | > 11.3 µM
CC(C)c1ccc(N/N=C/c2cc(C#Cc3ccccc3)cs2)cc1 | > 9.58 µM | > 9.58 µM
O=C(CSCCCN1CCN(c2cccc(Cl)c2)CC1)N/N=C/c1ccc(Cl)cc1 | > 7.09 µM | > 7.09 µM
Cn1c(-c2cncc(C#Cc3ccccc3)c2)n[nH]c1=S | > 11.3 µM | > 11.3 µM
N=C(N)SCc1csc(-c2ccc(Br)cc2)n1 | > 9.05 µM | > 9.05 µM
CCOC(=O)C1=C(Nc2ccc(OS(=O)(=O)c3ccc(Cl)cc3)cc2)C(=O)N(C(C)(C)C)C1 | > 6.69 µM | > 6.69 µM
O=C(CSCCCN1CCN(c2cccc(Cl)c2)CC1)N/N=C/c1ccccc1 | > 7.66 µM | > 7.66 µM
CSc1sc(-c2cc[nH]n2)c(-c2ccccc2)c1C#N | > 11.1 µM | > 11.1 µM
O=c1c2ccccc2c(-c2ccc(F)cc2F)nn1-c1ccccc1 | > 9.87 µM | > 9.87 µM
CSc1sc(-c2ccon2)c(-c2ccccc2)c1C#N | > 11.1 µM | > 11.1 µM
O=S(=O)(c1cccs1)n1ccc(-c2ccc3c(c2)CCO3)n1 | > 9.93 µM | > 9.93 µM
COc1ccc(NC=C2C(=O)CC(c3cccs3)CC2=O)cc1 (stereo not given) | > 10.1 µM | > 10.1 µM

SMILES | IC50 | IC90
O=C(NC(=O)c1cnn2c(C(F)(F)F)cc(C(F)(F)F)nc12)Nc1ccc(Cl)cc1 | > 7.31 µM | > 7.31 µM
Cn1nc(-c2ccc(/C=N/NC(=O)c3ccc(Cl)cc3Cl)s2)cc1C(F)(F)F | > 7.38 µM | > 7.38 µM
N=S(=O)(c1ccc(Cl)cc1)c1cccs1 (stereo not given) | > 12.8 µM | > 12.8 µM
COCCCNC(=S)N/N=C/c1ccc(Cl)c(Cl)c1 | > 10.3 µM | > 10.3 µM
CNC(=O)NC(=O)c1sc(SC)c(-c2ccon2)c1C | > 10.6 µM | > 10.6 µM
O=[N+]([O-])c1ccsc1Oc1ccc(Cl)cc1Cl | > 11.4 µM | > 11.4 µM
Cn1nc(-c2ccc(/C=C(\C#N)S(C)(=O)=O)s2)cc1C(F)(F)F | > 9.13 µM | > 9.13 µM
O=C(N/N=C/c1cc(Cl)cc(Cl)c1O)N/N=C/c1cc(Cl)cc(Cl)c1O | > 7.57 µM | > 7.57 µM
O=[N+]([O-])c1cc(C(F)(F)F)ccc1N/N=C1\CCCCC1CCS(=O)(=O)c1ccc(Cl)cc1 (stereo not given) | > 6.55 µM | > 6.55 µM
O=C(NCCSCc1ccc2nonc2c1)c1ccc(Cl)cc1Cl | > 8.63 µM | > 8.63 µM
S=C(N/N=C\c1cccc2ccccc12)Nc1cccc(Cl)c1Cl | > 8.82 µM | > 8.82 µM
CCOC(=O)COc1ccccc1/C=C(/C#N)S(=O)(=O)c1ccccc1 | > 8.89 µM | > 8.89 µM
O=C1NC(=O)N2CSCC12 (stereo not given) | > 20.9 µM | > 20.9 µM
N#CC(=C1SCCCCS1)S(=O)(=O)c1ccccc1 | > 10.6 µM | > 10.6 µM
COc1cc(C(F)(F)F)nc2ccc(C#CCOC(=O)c3ccccc3Cl)cc12 | > 7.86 µM | > 7.86 µM
O=S(=O)(Nc1cccc(C(F)(F)F)c1)c1ccc(S(=O)(=O)c2ncc(C(F)(F)F)cc2Cl)s1 | > 5.99 µM | > 5.99 µM
CC1(C)CC(=O)c2c(SCCOC(=O)Nc3ccccc3)sc(C#N)c2C1 | > 8.24 µM | > 8.24 µM
O=S(=O)(CCSc1ccc(C(F)(F)F)cn1)c1ccc(OC(F)(F)F)cc1 | > 7.65 µM | > 7.65 µM
O=C(NNC(=O)c1ccc(CSc2ccc(C(F)(F)F)cn2)o1)c1ccc(Cl)cc1 | > 7.24 µM | > 7.24 µM
CC(=O)c1ccc(C#Cc2ccccc2)s1 | > 14.6 µM | > 14.6 µM
O=S(=O)(c1ccc(Br)s1)N1CCC(C(c2ccccc2)c2ccccc2)CC1 | > 6.93 µM | > 6.93 µM
S=C(N/N=C/c1ccc(Cl)cc1)Nc1cc(Cl)ccc1Cl | > 9.2 µM | > 9.2 µM
O=C(Nc1ccc(OC(F)(F)F)cc1)N1CCN(c2cc(C(F)(F)F)nc3ccccc23)CC1 | > 6.81 µM | > 6.81 µM

SMILES | IC50 | IC90
N#C/C(=C\c1ccccc1Cl)c1nc2ccccc2[nH]1 | > 11.8 µM | > 11.8 µM
C=S(=O)(N/C=C1/C(=O)c2ccccc2N(C)S1(=O)=O)c1ccccc1 (stereo not given) | > 8.77 µM | > 8.77 µM
O=C(NNc1cc(C(F)(F)F)nc2ccccc12)Nc1ccc(Cl)cc1 | > 8.67 µM | > 8.67 µM
CC(=O)c1sc(SCCS(=O)(=O)c2ccccc2)c2c1CC(C)(C)CC2=O | > 7.81 µM | > 7.81 µM
O=c1nc(SCc2ccc(Cl)cc2Cl)[nH]c2ccccc12 | > 9.79 µM | > 9.79 µM
CCc1ccc(-n2nnnc2C/C=N/Nc2ccc(F)cc2)cc1 | > 10.2 µM | > 10.2 µM
O=C1N=C(N2CCCCC2)S/C1=C(/C=C(CC(=O)c1ccccc1)c1ccccc1)c1ccccc1 | > 6.7 µM | > 6.7 µM
Cc1cc(Cl)ccc1NC(N)=NN | > 10.1 µM | > 10.1 µM
Cc1cc2ncc(-c3ccnc(SCC(=O)C(C)(C)C)n3)c(C)n2n1 | > 9.28 µM | > 9.28 µM
CCOC(=O)c1sc(SC)c2c1CCc1conc1-2 | > 11.2 µM | > 11.2 µM
NNC(=O)COc1ccccc1CSc1ccc(Cl)cc1 | > 10.2 µM | > 10.2 µM
O=C(NC(=S)Nc1ccc(F)cc1)c1cnn2c(C(F)(F)F)cc(C(F)(F)F)nc12 | > 7.31 µM | > 7.31 µM
Cc1[nH]c2ccccc2c1Sc1ccc(Cl)cc1 | > 12.1 µM | > 12.1 µM
COc1ccc(/C=C2\CN(Cc3ccccc3)CC3(C=NN(CCO)C3c3ccc(OC)cc3)C2)cc1 (stereo not given) | > 6.63 µM | > 6.63 µM
O=C1CCC(c2ccccc2)C(=O)/C1=N\Nc1ccccc1Cl (stereo not given) | > 10.1 µM | > 10.1 µM
Cn1c(Sc2sccc2[N+](=O)[O-])nnc1C(F)(F)F | > 10.6 µM | > 10.6 µM
O=C(Nc1ccc(Cl)cc1)O/N=C\c1ccc(C#Cc2ccccc2)cc1 | > 8.8 µM | > 8.8 µM
NC(=S)CCOC1CCN(Cc2ccccc2)CC1 | > 11.9 µM | > 11.9 µM
CSc1sc(Cl)c2c1/C(=N\O)CC(C)(C)C2 | > 12 µM | > 12 µM
Clc1ccc(N/N=C/c2sccc2Oc2ccccc2)cc1 | > 10 µM | > 10 µM
N#Cc1c(OCC(F)(F)F)ccc(Sc2ccc(C(F)(F)F)cn2)c1OCC(F)(F)F | 5.5 µM | > 6.93 µM
c1ccn(C2CCNCC2)c1 | > 22 µM | > 22 µM
O=C(CSc1ccc(C(F)(F)F)cn1)Nc1cc(C(F)(F)F)cc(C(F)(F)F)c1 | > 7.36 µM | > 7.36 µM

SMILES | IC50 | IC90
C=S(NC(=O)Nc1ccc(Cl)cc1)c1sc(Cl)c2c1C(=O)CCC2 (stereo not given) | > 8.22 µM | > 8.22 µM
CNc1ncnc(NNC(=O)Nc2ccc(OC(F)(F)F)cc2)c1[N+](=O)[O-] | 3.31 µM | > 8.52 µM
C=S(=O)(NS(=O)(=O)c1ccc2c(c1)CCN2C(C)=O)c1ccc(C)cc1 (stereo not given) | > 8.41 µM | > 8.41 µM
CCOC(=O)c1sc(N(NC(=O)c2ccc(Cl)cc2)C(=O)c2ccc(Cl)cc2)c2c1CC(C)(C)CC2=O | 1.81 µM | 2.02 µM
CSc1sc(C(=O)N/N=C/c2ccc(Cl)cc2)c2c1C1(CCC2)SCCS1 | > 7.25 µM | > 7.25 µM
O=C(COc1ccccc1SCc1ccc(Cl)cc1)NNC(=O)c1ccccc1Cl | > 7.15 µM | > 7.15 µM
COc1cc(/C=N/NC(=S)Nc2cc(Cl)ccc2Cl)ccc1OS(=O)(=O)c1ccc(C)cc1 | > 6.29 µM | > 6.29 µM
Cc1nc2c(/C(N)=N/OCc3cccc(Cl)c3)cnn2c(C)c1C | > 9.6 µM | > 9.6 µM
CCOC(=O)c1ccc(Oc2sccc2[N+](=O)[O-])cc1 | > 11.3 µM | > 11.3 µM
O=S(=O)(Oc1ccc(Cl)cc1)c1cc(S(=O)(=O)Oc2ccc(Cl)cc2)c(Cl)s1 | > 6.6 µM | > 6.6 µM
CC(C)(C)c1ccc(C(=O)NNC(=O)c2ccc(CSc3ccc(C(F)(F)F)cn3)o2)cc1 | > 6.91 µM | > 6.91 µM
CC(=O)c1sc(SCCS(=O)(=O)c2ccc(C)cc2)c2c1CC(C)(C)CC2=O | > 7.56 µM | > 7.56 µM
N#C/C(=C\C=C\c1ccccc1)c1cccc(Cl)c1 | > 12.4 µM | > 12.4 µM
O=C1CCC(c2ccccc2)C(=O)/C1=N\Nc1ccc(Cl)cc1 (stereo not given) | > 10.1 µM | > 10.1 µM
O=c1c(Cl)c2[nH]c3ccccc3nc-2c2ccccc12 | > 11.8 µM | > 11.8 µM
O=S1(=O)CC(S(=O)(=O)c2cccs2)c2ccccc21 (stereo not given) | > 10.5 µM | > 10.5 µM
COc1cc(C)c2c(c1)C=CC1C2CCC2(C)C(O)CCC12 (stereo not given) | > 11.1 µM | > 11.1 µM
O=C(NCCSCc1csc2ccc(Cl)cc12)Nc1ccc(Cl)cc1 | > 8.02 µM | > 8.02 µM
NC(=O)N/N=C/c1ccc(Cl)cc1 | > 16.7 µM | > 16.7 µM
N#Cc1cnc(S)nc1N | > 21.7 µM | > 21.7 µM
S=C(NCc1ccc(Cl)c(Cl)c1)Nc1cccnc1 | > 10.6 µM | > 10.6 µM

Reference: ChEMBL document CHEMBL4483862, “Open-source discovery of chemical leads for next-generation chemoprotective antimalarials” (2018)
